# US20230371511A1, “MIXTURES CONTAINING CYCLOBUTRIFLURAM” (BASF SE, priority 2020, published 2023)
# Columns and labels:
# Format in all cases: cell-based
# Conditions in all cases: single active, 7 days after inoculation
# [1] = system: Alternaria solani; assay: Microtest: activity against early blight caused by Alternaria solani (MTP growth, 405 nm)
# Text: (§1) The active compounds were formulated separately as a stock solution having a concentration of 10000 ppm in dimethyl sulfoxide.
# (§2) The measured parameters were compared to the growth of the active compound-free control variant (100%) and the fungus-free blank value to determine the relative growth in % of the pathogens in the respective active compounds.
# (§3) These percentages were converted into efficacies.
# (§4) The stock solutions were mixed according to the ratio, pipetted onto a micro titer plate (MTP) and diluted with water to the stated concentrations. A spore suspension of Alternaria solani in an aqueous biomalt or yeast-bactopeptone-glycerine or DOB solution was then added. The plates were placed in a water vapor-saturated chamber at a temperature of 18° C. Using an absorption photometer, the MTPs were measured at 405 nm 7 days after the inoculation.
# (§5) An efficacy of 0 means that the growth level of the pathogens corresponds to that of the untreated control; an efficacy of 100 means that the pathogens were not growing.
# (§6) The expected efficacies of active compound mixtures were determined using Colby's formula [R. S. Colby, “Calculating synergistic and antagonistic responses of herbicide combinations”, Weeds 15, 20-22 (1967)] and compared with the observed efficacies.
# [2] = system: Colletotrichum orbiculare; assay: Microtest: activity against anthracnose caused by Colletotrichum orbiculare (MTP growth, 405 nm)
# Text: as §1, §2, §3
# as §4, with “Colletotrichum orbiculare” for “Alternaria solani”, “bio malt” for “biomalt or yeast-bactopeptone-glycerine or DOB”
# as §5, §6
# [3] = system: Rhizoctonia solani; assay: Microtest: activity against Rhizoctonia solani (MTP growth, 405 nm)
# Method: as §1
# as §4, with “Rhizoctonia” for “Alternaria”, “COB” for “DOB”, “[…].” for “18° C.”
# as §2, §3, §5, §6
# [4] = system: Septoria tritici; assay: Microtest: activity against leaf blotch on wheat caused by Septoria tritici (MTP growth, 405 nm)
# Method: as §1
# as §4, with “Septoria tritici” for “Alternaria solani”
# as §2, §3, §5, §6
# [5] = system: Cercospora sojina; assay: Microtest: activity against Cercospora sojina (MTP growth, 405 nm)
# Method: as §1
# as §4, with “Cercospora sojina” for “Alternaria solani”, “COB” for “DOB”
# as §2, §3, §5, §6
# [6] = 0.25 ppm, 0 = growth as untreated control, 100 = no growth
smiles,measurement,setting,value
"Cc1nc2c(F)c(F)ccc2cc1Oc1cccc(F)c1C(C)(C)O [Ipflufenoquin, ipflufenoquin]",Observed efficacy,[1]; 0.004 ppm,9
same,Observed efficacy,[2]; 0.25 ppm,25
"Cn1nnnc1/C(=N\OCc1cccc(NC(=O)OC(C)(C)C)n1)c1ccccc1 [Picarbutrazox, picarbutrazox]",Observed efficacy,[1]; 0.063 ppm,8
"Cc1cc(C(F)(F)F)nn1CC(=O)N1CCC(c2nc(C3=NOC(c4c(F)cccc4F)C3)cs2)CC1 (stereo not drawn) [Oxathiapirolin, oxathiapiprolin]",Observed efficacy,[1]; 0.063 ppm,0
"Cn1cc(C(=O)Nc2ccccc2-c2cc(F)c(F)c(F)c2)c(C(F)F)n1 [Fluxapyroxad, fluxapyroxad]",Observed efficacy,[3]; 0.25 ppm,46
"COCC(=O)N(c1c(C)cccc1C)[C@H](C)C(=O)OC [Mefenoxam, mefenoxam]",Observed efficacy,[4]; 0.063 ppm,6
same,Observed efficacy,[4]; 1 ppm,4
same,Observed efficacy,[4]; 4 ppm,2
"CON(C(=O)c1cn(C)nc1C(F)F)C(C)Cc1c(Cl)cc(Cl)cc1Cl (stereo not drawn) [Pydiflumetofen, pydiflumetofen]",Observed efficacy,[4]; 0.004 ppm,5
same,Observed efficacy,[4]; 0.016 ppm,23
same,Observed efficacy,[5]; 0.00025 ppm,9
"CC(O)(Cn1cncn1)c1ccc(Oc2ccc(Cl)cc2)cc1C(F)(F)F (stereo not drawn) [Mefentrifluconazol, mefentrifluconazole]",Observed efficacy,[4]; 0 ppm (so in the source),68
same,Observed efficacy,[4]; 0.063 ppm,61
same,Observed efficacy,[4]; [6],70
"O=C(NC1CCC1c1ccc(Cl)cc1Cl)c1cccnc1C(F)(F)F (stereo in doubt) [Cyclobutrifluram, cyclobutrifluram]",Observed efficacy,[4]; 0.063 ppm,0
same,Observed efficacy,[4]; [6],7
same,Observed efficacy,[5]; 0.016 ppm,18
same,Observed efficacy,[3]; 1 ppm,0
same,Observed efficacy,[1]; 0.004 ppm,40
same,Observed efficacy,[1]; 0.016 ppm,74
same,Observed efficacy,[2]; 1 ppm,1
